In brackets after ≈: the same amount, converted by molar mass.
Columns and labels:
[1] = Fraction unbound in mouse plasma; type: ADME, cell-free
[2] = Clearance in rat hepatocytes assessed per million cell; type: ADME, cell-based, Hepatocyte; details: read-out: CLH
[3] = Solubility of the compound in fasted state simulated intestinal fluid; type: physicochemical; details: simulated gi fluid
[4] = Mutagenicity in Salmonella typhimurium by Ames test; type: toxicity; details: salmonella enterica subsp. enterica serovar typhimurium
[5] = Clearance in minipig at 1 mg/kg, iv bolus measured over 240 hrs; type: ADME, organism-based, Sus scrofa domesticus; details: pig, in vivo
[6] = Clearance in human hepatocytes assessed per million cells; type: ADME, cell-based, Hepatocyte; details: read-out: CLH
[7] = Clearance in mouse hepatocytes assessed per million cells; type: ADME, cell-based, Hepatocyte; details: read-out: CLH
Keratinocyte = experiment: Phototoxicity in human Keratinocytes in presence of UVA at 320 to 400 nm; type: cell-based; details: light or radiation study
[8] = Terminal half life in rat at 1 mg/kg, iv bolus measured over 24 hrs; type: ADME, organism-based; details: in vivo, read-out: beta t1/2 (converted)
[9] = Terminal half life in minipig at 1 mg/kg, iv bolus measured over 240 hrs; type: ADME, organism-based, Sus scrofa domesticus; details: pig, in vivo, read-out: beta t1/2 (converted)
[10] = target: Phosphatidylinositol 4-kinase beta (Homo sapiens, UniProt Q9UBF8); experiment: Binding affinity to PIK4CB (unknown origin); type: ADME
[11] = Fraction unbound in rat plasma; type: ADME, cell-free
[12] = Clearance in rat at 1 mg/kg, iv bolus measured over 24 hrs; type: ADME, organism-based; details: in vivo
[13] = Fraction unbound in human plasma; type: ADME, cell-free
[14] = Octanol/water distribution co-efficient, log D of the compound at pH 7.4; type: physicochemical
[15] = (§1) Modulation of mouse gamma secretase assessed as reduction in Abeta42 production
Mus musculus [16] = organism: Mus musculus; experiment: as §1
[17] = Volume of distribution at steady state in rat at 1 mg/kg, iv bolus measured over 24 hrs; type: ADME, organism-based; details: in vivo, read-out: Vdss
[18] = Oral bioavailability in rat at 2 mg/kg via gavage measured over 24 hrs; type: ADME, organism-based; details: in vivo
[19] = Solubility in fed state simulated intestinal fluids; type: physicochemical; details: simulated gi fluid
[20] = target: Voltage-gated inwardly rectifying potassium channel KCNH2 (Homo sapiens, UniProt Q12809); experiment: (§2) Inhibition of human ERG
hERG (KCNH2) = hERG (KCNH2) (Homo sapiens, UniProt Q12809); experiment: as §2; details: human
[21] = Solubility of compound by lyophilisation solubility assay; type: physicochemical
[22] = Volume of distribution at steady state in minipig at 1 mg/kg, iv bolus measured over 240 hrs; type: ADME, organism-based, Sus scrofa domesticus; details: pig, in vivo, read-out: Vdss
[23] = Thermodynamic solubility of the compound; type: physicochemical
[24] = Cytotoxicity against human embryonic stem cells assessed as reduction in cell viability; type: cell-based
[25] = Dose normalized AUC (infinity) in rat at 2 mg/kg, po via gavage measured over 24 hrs; type: ADME, organism-based; details: in vivo
Gamma-secretase = experiment: (§3) Modulation of gamma secretase in human H4 cells over expressing human APP695 harboring K595N/M596L Swedish double mutant assessed as reduction in Abeta42 production after 24 hrs by Alphalisa assay; type: cell-based
[26] = target: Gamma-secretase (Homo sapiens) (UniProt Q96BI3+Q9NZ42+Q8WW43+P49768+Q92542+P49810); experiment: as §3; type: cell-based
[27] = Dose normalized AUC (infinity) in minipig at 3 mg/kg, po via gavage measured over 240 hrs; type: ADME, organism-based, Sus scrofa domesticus; details: pig, in vivo
Melanocyte = experiment: Phototoxicity in human Melanocytes in presence of UVA at 320 to 400 nm; type: cell-based; details: light or radiation study
[28] = Oral bioavailability in minipig at 3 mg/kg via gavage measured over 240 hrs; type: ADME, organism-based, Sus scrofa domesticus; details: pig, in vivo
Mus musculus [29] = experiment: In vivo modulation of gamma secretase in po dosed APP-Swedish transgenic mouse assessed as reduction in total Abeta42 production level in brain administered as single dose by ELISA or AlphaLISA assay; type: functional, organism-based; details: for IC50: Mus musculus
Mus musculus [30] = experiment: In vivo modulation of gamma secretase in APP-Swedish transgenic mouse assessed as reduction in Abeta42 production by measuring remaining Abeta42 level at 1 mg/kg, po measured after 4 hrs by ELISA or AlphaLISA assay relative to control; type: functional
[31] = Fraction unbound in 10% fetal calf serum; type: ADME, cell-free, Bos taurus; details: cattle
Mus musculus [32] = experiment: In vivo modulation of gamma secretase in APP-Swedish transgenic mouse assessed as reduction in Abeta42 production by measuring remaining Abeta42 level at 3 mg/kg, po measured after 4 hrs by ELISA or AlphaLISA assay relative to control; type: functional
[33] = Ratio of IC50 for dark toxicity in human Melanocytes to IC50 for phototoxicity in human Melanocytes in presence of UVA at 320 to 400 nm; type: cell-based, Melanocyte; details: read-out: Ratio IC50
Mus musculus [34] = experiment: In vivo modulation of gamma secretase in APP-Swedish transgenic mouse assessed as reduction in Abeta42 production by measuring remaining Abeta42 level at 10 mg/kg, po measured after 4 hrs by ELISA or AlphaLISA assay relative to control; type: functional
[35] = Dark toxicity in human Melanocytes assessed as reduction in cell viability; type: cell-based, Melanocyte
Mus musculus [36] = experiment: In vivo modulation of gamma secretase in APP-Swedish transgenic mouse assessed as reduction in Abeta42 production by measuring remaining Abeta42 level at 0.3 mg/kg, po measured after 4 hrs by ELISA or AlphaLISA assay relative to control; type: functional
[37] = Ratio of IC50 for dark toxicity in human Keratinocytes to IC50 for phototoxicity in human Keratinocytes in presence of UVA at 320 to 400 nm; type: cell-based, Keratinocyte; details: read-out: Ratio IC50
[38] = Covalent protein binding in human liver microsomes assessed per mg protein in presence of NADPH; type: ADME, Microsome
[39] = Dark toxicity in human Keratinocytes assessed as reduction in cell viability; type: cell-based, Keratinocyte

Sequence of Phosphatidylinositol 4-kinase beta (Q9UBF8 whole entry): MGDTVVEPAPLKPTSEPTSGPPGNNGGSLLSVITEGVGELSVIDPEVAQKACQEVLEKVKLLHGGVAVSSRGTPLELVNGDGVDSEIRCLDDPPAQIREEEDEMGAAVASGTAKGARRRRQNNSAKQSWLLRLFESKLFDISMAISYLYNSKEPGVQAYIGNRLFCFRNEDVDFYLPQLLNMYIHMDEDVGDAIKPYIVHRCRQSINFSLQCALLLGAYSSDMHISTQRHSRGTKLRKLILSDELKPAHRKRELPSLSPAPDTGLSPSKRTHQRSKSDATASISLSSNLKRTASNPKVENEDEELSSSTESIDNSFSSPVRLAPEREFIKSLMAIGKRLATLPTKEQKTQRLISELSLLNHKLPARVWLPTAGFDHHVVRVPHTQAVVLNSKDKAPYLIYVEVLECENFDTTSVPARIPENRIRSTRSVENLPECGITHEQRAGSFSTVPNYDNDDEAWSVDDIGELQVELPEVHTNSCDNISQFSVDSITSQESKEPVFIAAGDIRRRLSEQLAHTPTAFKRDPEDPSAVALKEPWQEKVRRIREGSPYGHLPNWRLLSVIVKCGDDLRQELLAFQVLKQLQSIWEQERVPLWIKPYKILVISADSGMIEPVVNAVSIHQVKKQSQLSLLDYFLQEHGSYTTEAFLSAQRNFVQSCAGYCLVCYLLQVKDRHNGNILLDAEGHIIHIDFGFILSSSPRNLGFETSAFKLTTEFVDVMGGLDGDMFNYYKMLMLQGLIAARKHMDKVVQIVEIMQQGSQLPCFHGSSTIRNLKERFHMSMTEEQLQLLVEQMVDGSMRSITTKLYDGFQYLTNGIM
Sequence of hERG (KCNH2) (Q12809 whole entry): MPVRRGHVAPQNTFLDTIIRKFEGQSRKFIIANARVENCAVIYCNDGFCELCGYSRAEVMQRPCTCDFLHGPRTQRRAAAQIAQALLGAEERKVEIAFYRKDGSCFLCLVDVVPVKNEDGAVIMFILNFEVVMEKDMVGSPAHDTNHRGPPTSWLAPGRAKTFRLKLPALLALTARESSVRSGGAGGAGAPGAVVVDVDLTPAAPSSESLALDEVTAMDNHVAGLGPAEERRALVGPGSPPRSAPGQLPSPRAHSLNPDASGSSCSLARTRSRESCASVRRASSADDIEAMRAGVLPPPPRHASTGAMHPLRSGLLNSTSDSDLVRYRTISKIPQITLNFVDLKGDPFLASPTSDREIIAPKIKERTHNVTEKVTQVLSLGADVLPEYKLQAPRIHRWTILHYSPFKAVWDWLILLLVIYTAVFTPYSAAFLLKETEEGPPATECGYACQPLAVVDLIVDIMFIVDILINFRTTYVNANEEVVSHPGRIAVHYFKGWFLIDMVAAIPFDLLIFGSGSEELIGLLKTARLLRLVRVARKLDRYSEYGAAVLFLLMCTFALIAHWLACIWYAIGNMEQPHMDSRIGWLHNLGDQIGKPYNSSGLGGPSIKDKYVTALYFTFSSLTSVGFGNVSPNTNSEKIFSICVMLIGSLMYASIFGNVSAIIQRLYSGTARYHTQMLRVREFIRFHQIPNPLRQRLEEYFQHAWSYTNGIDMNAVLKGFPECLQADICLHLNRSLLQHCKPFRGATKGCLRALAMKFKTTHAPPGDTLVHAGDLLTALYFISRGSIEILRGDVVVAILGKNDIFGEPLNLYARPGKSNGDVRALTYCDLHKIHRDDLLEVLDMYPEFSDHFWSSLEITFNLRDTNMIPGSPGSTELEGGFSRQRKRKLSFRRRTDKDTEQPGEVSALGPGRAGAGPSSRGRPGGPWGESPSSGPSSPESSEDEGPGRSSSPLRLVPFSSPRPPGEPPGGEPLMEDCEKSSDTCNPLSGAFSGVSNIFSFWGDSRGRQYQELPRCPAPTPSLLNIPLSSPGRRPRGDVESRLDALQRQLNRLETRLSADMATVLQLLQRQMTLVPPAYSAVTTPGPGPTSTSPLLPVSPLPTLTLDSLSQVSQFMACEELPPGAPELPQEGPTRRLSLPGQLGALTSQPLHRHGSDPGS
Sequence of Voltage-gated inwardly rectifying potassium channel KCNH2 (Q12809 whole entry): as above

**Q.** With `Cc1nnc(N2C[C@H]3CC[C@@H](C2)[C@@H]3Nc2nc3c(O[C@@H](C)C(F)(F)F)ccc(C(F)(F)F)n3n2)o1` as the molecule, how does the fraction unbound [1] read?
**A.** 0.043

**Q.** And the hepatocyte CLint [2]?
**A.** 6.3 µL/min/1e6 cells

**Q.** What about the solubility [3] of the same molecule?
**A.** 234 µg/mL (≈ 463 µM)

**Q.** What about the Activity [4] of the same molecule?
**A.** Non-Toxic

**Q.** What about the clearance [5] of the same molecule?
**A.** 3.35 mL/min/kg

**Q.** And the hepatocyte CLint [6]?
**A.** 1.1 µL/min/1e6 cells

**Q.** What about the hepatocyte CLint [7] of the same molecule?
**A.** 3.4 µL/min/1e6 cells

**Q.** What about the IC50 (Keratinocyte) of the same molecule?
**A.** 25 µM

**Q.** What about the half-life [8] of the same molecule?
**A.** 486 min

**Q.** And the half-life [9]?
**A.** 402 min

**Q.** What about the Kd [10] of the same molecule?
**A.** > 40000 nM

**Q.** And the fraction unbound [11]?
**A.** 0.059

**Q.** And the clearance [12]?
**A.** 3.8 mL/min/kg

**Q.** And the fraction unbound [13]?
**A.** 0.05

**Q.** And the logD [14]?
**A.** 3.8 to 3.85

**Q.** And the IC50 [15]?
**A.** 21 nM

**Q.** What about the fIC50 (Mus musculus [16]) of the same molecule?
**A.** 14 nM

**Q.** And the Vd [17]?
**A.** 2.2 L/kg

**Q.** And the bioavailability [18]?
**A.** 33%

**Q.** And the solubility [19]?
**A.** 390 µg/mL (≈ 772 µM)

**Q.** And the IC50 [20]?
**A.** > 20 µM

**Q.** What about the IC20 (hERG (KCNH2)) of the same molecule?
**A.** 5.4 µM

**Q.** And the solubility [21]?
**A.** 82 µg/mL (≈ 162 µM)

**Q.** What about the Vd [22] of the same molecule?
**A.** 0.83 L/kg

**Q.** What about the Therm solubility [23] of the same molecule?
**A.** 85 µg/mL

**Q.** And the Activity [24]?
**A.** Non-Toxic

**Q.** What about the AUC/dose [25] of the same molecule?
**A.** 1748 kg·ng·h/mL/mg

**Q.** And the IC50 (Gamma-secretase)?
**A.** 30 nM

**Q.** And the fIC50 [26]?
**A.** 19 nM

**Q.** What about the AUC/dose [27] of the same molecule?
**A.** 1383 kg·ng·h/mL/mg

**Q.** What about the IC50 (Melanocyte) of the same molecule?
**A.** 25 µM

**Q.** What about the bioavailability [28] of the same molecule?
**A.** 27%

**Q.** And the IC50 (Mus musculus [29])?
**A.** 40 nM

**Q.** Which fraction unbound [1] does the source give for `Cc1nsc(N2CC3CCC(C2)C3Nc2nc3c(-c4ccc(F)c(F)c4F)cccn3n2)n1` (stereo not given) here?
**A.** 0.003

**Q.** What about the Activity (Mus musculus [30]) of the same molecule?
**A.** 56%

**Q.** What about the fraction unbound [31] of the same molecule?
**A.** 0.22

**Q.** And the hepatocyte CLint [6]?
**A.** 6.6 µL/min/1e6 cells

**Q.** And the hepatocyte CLint [7]?
**A.** 5.4 µL/min/1e6 cells

**Q.** And the IC50 (Keratinocyte)?
**A.** 1.67 µM

**Q.** And the Kd [10]?
**A.** 120 nM

**Q.** And the “remaining Abeta42 level (% of control)” value (Mus musculus [32])?
**A.** 27%

**Q.** What about the fraction unbound [13] of the same molecule?
**A.** 0.004

**Q.** What about the selectivity ratio [33] of the same molecule?
**A.** 22.9 to 23

**Q.** And the logD [14]?
**A.** 4.1 to 4.14

**Q.** What about the IC50 [15] of the same molecule?
**A.** 4 nM

**Q.** And the fIC50 (Mus musculus [16])?
**A.** 0.9 nM

**Q.** What about the “remaining Abeta42 level (% of control)” value (Mus musculus [34]) of the same molecule?
**A.** 22%

**Q.** What about the IC50 [35] of the same molecule?
**A.** > 38 µM

**Q.** What about the IC50 [20] of the same molecule?
**A.** < 2 µM

**Q.** And the IC20 (hERG (KCNH2))?
**A.** < 1 µM

**Q.** What about the Activity (Mus musculus [36]) of the same molecule?
**A.** 75%

**Q.** What about the solubility [21] of the same molecule?
**A.** 3.8 to 3.86 µg/mL (≈ 8.06 to 8.19 µM)

**Q.** What about the selectivity ratio [37] of the same molecule?
**A.** 22.9 to 23

**Q.** What about the PB [38] of the same molecule?
**A.** 105 pmol

**Q.** And the IC50 [39]?
**A.** > 38 µM

**Q.** What about the IC50 (Gamma-secretase) of the same molecule?
**A.** 4.5 nM

**Q.** And the fIC50 [26]?
**A.** 1 nM

**Q.** What about the IC50 (Melanocyte) of the same molecule?
**A.** 1.67 µM

**Q.** And the fIC50 (Mus musculus [29])?
**A.** 0.5 nM

**Q.** And the IC50 (Mus musculus [29])?
**A.** 160 nM

From ChEMBL document CHEMBL4619803, “Stepwise Design of γ-Secretase Modulators with an Advanced Profile by Judicious Coordinated Structural Replacements and an Unconventional Phenyl Ring Bioisostere” (J Med Chem, 2020)
